# Source: patent US4758597A, “Carenadiol and derivatives” (University Patents, Inc., priority 1987, dated 1988)
# Experiments:
# [1] = tested on: genetically epilepsy prone rats; assay: Audiogenic seizure (AGS) test, anticonvulsant activity; assay type: in vivo, rat; conditions: for ED50: Rattus norvegicus, 0.25 h, iv, rats, tested 15 minutes after injection, 95% confidence limits printed in parentheses on the next line, read-out: AGS ED50 (median effective anticonvulsant dose)
# Protocol: (§1) With regard to the potential use of this family of compounds in the treatment of epilepsy, (+)-Carenadiol was evaluated in the audiogenic seizure (AGS-susceptible) rat model of eilepsy to assess its anticonvulsant activity, and the rat rotorod (ROT) paadigm was used to assess differential neurotoxicity (i.e., reflecting mainly sedation and/or incoordination), of this family of compounds.
# (§2) For AGS tests, male and female, 150-225 gm, genetically epilepsy prone rats were used. For ROT tests, male and female, 150-225 gm. rats were used. CBD analogs (suspended in a vehicle of 10% polysorbate 80 and 90% distilled water) were injected intravenously and rats were tested 15 minutes later (a peak-effect time for both tests). In the AGS test, responses to sound were recorded as the presence or absence of seizure (i.e., generalized clonus or clonus and generalized flexion). In the ROT test, effects were measured as the ability or inability (i.e., neurotoxicity) of trained rats to remain on a revolving drum (rotorod) for 60 seconds.
# (§3) Separate groups of 10-15 rats were used for each doses of drug tested and, typically, 3-6 doses of each analog were used for each AGS and ROT test. For appropriate dose-response data, median effective anticonvulsant (ED50) and neurotoxic (TD50) doses and regression line parameters were calculated by computer-assisted probit analysis. Subsequent calculations of 95% confidence limits (CL) and comparisons between slopes and median doses (i.e., ED50 and TD50 potency comparisons) were carried out using the method of Litchfield and Wilcoxon [J. Pharmacol Exp Ther 96:99-133(1949)].Protective indexes (PI =ROT-TD50/AGS-ED50) also were calculated.
# [2] = as above; assay type: in vivo, rat; conditions: rat, in vivo; ratio of ROT TD50 to AGS ED50, iv, rats; read-out: PI (protective index = ROT-TD50/AGS-ED50)
# Protocol: as §1, §2, §3
# [3] = Rat rotorod (ROT) test, differential neurotoxicity; assay type: in vivo; conditions: iv, rats, tested 15 minutes after injection, 95% confidence limits printed in parentheses on the next line, read-out: ROT TD50 (median neurotoxic dose)
# Protocol: as §1, §2, §3
# laboratory animals = conditions: cited from earlier work
# [4] = in man; cited from earlier work
SMILES,ED50 [1] [mg/kg],activity among the compounds synthesized and tested ([1]; comparison in words),selectivity ratio at 0.25 h [2],TD50 at 0.25 h [3] [mg/kg],activity in models that predict cannabimimetic activity (laboratory animals),antidystonic activity [4],antiepileptic efficacy [4],cannabimimetic activity [4],side effects [4]
"CCCCCc1cc(O)c(C2C=C(C)CC3C2C3(C)C)c(O)c1 (single isomer, unassigned; (+)) [(+)-5a]",18.1,the most active,5.5,99.8,–,–,–,–,–
"CCCCCCC(C)(C)c1cc(O)c(C2C=C(C)CC3C2C3(C)C)c(O)c1 (single isomer, unassigned; (+)) [(+)-5b]",3.4,–,1.1,3.7,–,–,–,–,–
"C=C(C)[C@@H]1CCC(C)=C[C@H]1c1c(O)cc(CCCCC)cc1O [(-)-CBD, (-)-Cannabidiol]",–,–,–,–,inactive,possibly antidystonic activity,antiepileptic efficacy,no cannabimimetic activity,no recognized and undesired side effects
NC(=O)N1c2ccccc2C=Cc2ccccc21 [Carbamazepine],12.8,–,2.7,33.9,–,–,–,–,–
CCC1(c2ccccc2)C(=O)NC(=O)NC1=O [Phenobarbital],10.8,–,2.7,28.9,–,–,–,–,–
O=C1NC(=O)C(c2ccccc2)(c2ccccc2)N1 [Phenytoin],14.7,–,1.6,23.9,–,–,–,–,–
